From patent US9526249B2, “Biocidal composition of 2,6-dimethyl-m-dioxane-4-ol acetate and methods of use” (priority 2008, dated 2016)

Tests used:
Format in all cases: cell-based
[1] = test system: Pseudomonas aeruginosa (ATCC#15442), Pseudomonas aeruginosa (ATCC#10145), Enterobacter aerogenes (ATCC#13048), Escherichia coli (ATCC#11229), Klebsiella …; experiment: Preservative efficacy (repeated bacterial challenge) of dimethoxane/BIT in commercial liquid laundry detergent (pH 8.0), 96-deep well block
Procedure: (§1) In the following examples, tests are conducted in a 96-deep well block format using a total sample volume of 600 μl for all evaluations. In these samples, no more than 10% of the total volume consists of the biocide and organism solution and all non-matrix additions are normalized for all samples. Each experimental 96-well block contains biocide-treated samples and control samples which lack biocide.
(§2) Twenty-four hour tryptic soy broth cultures are combined in equal parts for formulation inoculation at a final concentration of 5×10^6 CFU/ml. Organisms are added to each sample of the 96-well block and mixed until homogenous. Additionally, bacterial challenges of the industrial or household product occur on days 2, 7, and 14 of the 28-day test period.
(§3) Sample aliquots are removed, at predetermined time points, for the enumeration of surviving microorganisms. Numerical values in the data tables listed below represent the log10 viable microorganisms recovered from individual samples at specific time points and biocide concentrations post microorganism addition. Biocide concentrations resulting in a≧4 log10 kill of microorganisms, as compared to the preservative-free control, were deemed a significant reduction of viable organisms and were subsequently used for calculating synergy index values.
(§4) The reported synergy indexes are measured and calculated using the formula described below. In this approach, a synergy index of 1 indicates additivity. If the index is less than 1, synergy has occurred, while a synergy index greater than 1 indicates antagonism. Synergy index=CA/Ca+CB/Cb Ca=minimal concentration of antimicrobial A, alone, producing a 4 log10 microbial kill Cb=minimal concentration of antimicrobial B, alone, producing a 4 log10 microbial kill
(§5) CA and CB=the concentrations of antimicrobials A and B, in combination, producing a 4 log10 microbial kill.
The antimicrobial profiles dimethoxane, 1,2-benzisothiazol-3-one (BIT), and combinations of dimethoxane/BIT are evaluated in a commercial liquid laundry detergent formulation (pH 8.0).
(§6) Organisms for this example: Pseudomonas aeruginosa (ATCC#15442), Pseudomonas aeruginosa (ATCC#10145), Enterobacter aerogenes (ATCC#13048), Escherichia coli (ATCC#11229), Klebsiella pneumoniae (ATCC#8308), Staphylococcus aureus (ATCC#6538), Salmonella choleraesuis (ATCC#10708).

[2] = test system: Pseudomonas aeruginosa (ATCC#15442), Pseudomonas aeruginosa (ATCC#10145), Enterobacter aerogenes (ATCC#13048), Escherichia coli (ATCC#11229), Klebsiella …; experiment: Preservative efficacy (repeated bacterial challenge) of dimethoxane/BIT in commercial water-based latex paint (pH 7.4), 96-deep well block
Procedure: as §1, §2, §3, §4, §5
(§7) The antimicrobial profiles of dimethoxane, BIT, and combinations of dimethoxane/BIT are evaluated in a commercial (interior eggshell) water-based latex paint formulation (pH 7.4). The paint formulation is determined to be free of microbial contamination prior to initiation of preservative efficacy evaluations.
as §6

[3] = test system: Pseudomonas aeruginosa (ATCC#15442), Pseudomonas aeruginosa (ATCC#10145), Enterobacter aerogenes (ATCC#13048), Escherichia coli (ATCC#11229), Klebsiella …; experiment: Preservative efficacy (repeated bacterial challenge) of dimethoxane/CMIT/MIT in commercial water-based latex paint (pH 7.4), 96-deep well block
Procedure: as §1, §2, §3, §4, §5
as §7, with “2,6-dimethyl-m-dioxan-4-ol acetate (dimethoxane), 5-chloro-2-methyl-4-isothiazolin-3-one/2-methyl-4-isothiazolin-3-one (CMIT/MIT)” for “dimethoxane, BIT,”, “dimethoxane/CMIT/MIT” for “dimethoxane/BIT”
as §6

[4] = test system: Pseudomonas aeruginosa (ATCC#15442), Pseudomonas aeruginosa (ATCC#10145), Enterobacter gergoviae (ATCC#33028), Escherichia coli (ATCC#11229), Pseudomonas …; experiment: Preservative efficacy (repeated bacterial challenge) of dimethoxane/MIT in commercial liquid laundry detergent (pH 8.0), 96-deep well block; details: day 20
Procedure: as §1, §2, §3, §4, §5
The antimicrobial profiles of 2,6-dimethyl-m-dioxan-4-ol acetate (dimethoxane), 2-methyl-3-isothiazolinone (MIT), and combinations of dimethoxane/MIT are evaluated in a commercial liquid laundry detergent formulation (pH 8.0). The detergent formulation is determined to be free of microbial contamination prior to initiation of preservative efficacy evaluations.
Organisms for this example: Pseudomonas aeruginosa (ATCC#15442), Pseudomonas aeruginosa (ATCC#10145), Enterobacter gergoviae (ATCC#33028), Escherichia coli (ATCC#11229), Pseudomonas putida (ATCC#49128), Staphylococcus aureus (ATCC#6538).

[5] = test system: wild strain of green algae isolated from contaminated PVA latex; experiment: Challenge testing of PVA latex against wild strain of green algae; details: Dimethoxane 2000 ppm alone (CMIT/MIT 0 ppm), three weeks
Procedure: Procedure. In this example, a viscous PVA (poly vinyl acetate) latex diluted with water at 5 to 1 ratio is used for algal efficacy testing. Each sample is mixed well by hand and vortex for 2 minutes. 5mL portions of each sample are then placed in a six-well plate and inoculated with 500 μL of 1×10^6 cfu/mL wild strain of green algae isolated from contaminated PVA latex.
The plates are incubated at room temp (25° C.-26° C.) under cyclic exposure to light (OTT-Lite model #OTL4012P, 40 Watt, 26 KLumen) and dark phases, for a period of three weeks.

[6] = day 20, ppm active, following four bacterial challenges

O=c1[nH]sc2ccccc12 [BIT, 1,2-benzisothiazol-3-one] was tested, and the “log10 viable microorganisms (score)” value ([1]; BIT alone 18 ppm, day 20) was 6.0 log10, the “log10 viable microorganisms (score)” value ([1]; BIT alone 26 ppm, day 20) was 7.0 log10 and the “log10 viable microorganisms (score)” value ([1]; BIT alone 40 ppm, day 20) was 3.0 log10. The “log10 viable microorganisms (score)” value ([1]; BIT alone 59 ppm, day 20) was 0.0 log10, the “log10 viable microorganisms (score)” value ([1]; BIT alone 89 ppm, day 20) was 0.0 log10 and the “log10 viable microorganisms (score)” value ([1]; BIT alone 133 ppm, day 20) was 0.0 log10. The “log10 viable microorganisms (score)” value ([1]; BIT alone 200 ppm, day 20) was 1.0 log10, the “log10 viable microorganisms (score)” value ([1]; BIT alone 300 ppm, day 20) was 1.0 log10 and the “BIT alone (minimal concentration producing a 4 log10 microbial kill)” value [1, 6] was 59 ppm. For the same compound, the “log10 viable microorganisms (score)” value ([2]; BIT alone 29 ppm, day 15) was 8 log10, the “log10 viable microorganisms (score)” value ([2]; BIT alone 44 ppm, day 15) was 7 log10 and the “log10 viable microorganisms (score)” value ([2]; BIT alone 66 ppm, day 15) was 6 log10. The “log10 viable microorganisms (score)” value ([2]; BIT alone 99 ppm, day 15) was 7 log10, the “log10 viable microorganisms (score)” value ([2]; BIT alone 148 ppm, day 15) was 7 log10 and the “log10 viable microorganisms (score)” value ([2]; BIT alone 222 ppm, day 15) was 8 log10. For the same compound, the “log10 viable microorganisms (score)” value ([2]; BIT alone 333 ppm, day 15) was 8 log10 and the “log10 viable microorganisms (score)” value ([2]; BIT alone 500 ppm, day 15) was 5 log10.
Compound CC(=O)OC1CC(C)OC(C)O1 (stereo not shown) [DMX, 2,6-dimethyl-m-dioxane-4-ol acetate] has a log10 viable microorganisms ([3]; 480 h, 1740 ppm) of 2 log10, a log10 viable microorganisms ([3]; DMX alone 102 ppm a.i., day 20) of 8 log10 and a log10 viable microorganisms ([3]; DMX alone 153 ppm a.i., day 20) of 8 log10. It also gave a log10 viable microorganisms ([3]; DMX alone 229 ppm a.i., day 20) of 7 log10, a log10 viable microorganisms ([3]; DMX alone 344 ppm a.i., day 20) of 7 log10 and a log10 viable microorganisms ([3]; DMX alone 516 ppm a.i., day 20) of 8 log10. For the same compound, the log10 viable microorganisms ([3]; DMX alone 773 ppm a.i., day 20) was 8 log10, the log10 viable microorganisms ([3]; DMX alone 1160 ppm a.i., day 20) was 6 log10 and the “DMX alone (minimal concentration producing a 4 log10 microbial kill)” value [3, 6] was 1740 ppm. The log10 viable microorganisms ([4]; DMX alone 77 ppm) was 8.0 log10, the log10 viable microorganisms ([4]; DMX alone 115 ppm) was 8.0 log10 and the log10 viable microorganisms ([4]; DMX alone 172 ppm) was 8.0 log10. For the same compound, the log10 viable microorganisms ([4]; DMX alone 257 ppm) was 5.0 log10, the log10 viable microorganisms ([4]; DMX alone 386 ppm) was 4.0 log10 and the log10 viable microorganisms ([4]; DMX alone 580 ppm) was 3.0 log10. The log10 viable microorganisms ([4]; DMX alone 870 ppm) was 1.0 log10, the log10 viable microorganisms ([4]; DMX alone 1305 ppm) was 0.0 log10 and the “DMX alone (minimal concentration producing a 4 log10 microbial kill)” value [4] was 870. The “% algal growth Sample A” value [5] was 15%, the “% algal growth Sample B” value [5] was 15% and the log10 viable microorganisms ([1]; 480 h, 1160 ppm) was 0.0 log10. For the same compound, the log10 viable microorganisms ([1]; DMX alone 102 ppm a.i., day 20) was 6.0 log10, the log10 viable microorganisms ([1]; DMX alone 153 ppm a.i., day 20) was 6.0 log10 and the log10 viable microorganisms ([1]; DMX alone 229 ppm a.i., day 20) was 6.0 log10. It also gave a log10 viable microorganisms ([1]; DMX alone 344 ppm a.i., day 20) of 6.0 log10, a log10 viable microorganisms ([1]; DMX alone 516 ppm a.i., day 20) of 6.0 log10 and a log10 viable microorganisms ([1]; DMX alone 773 ppm a.i., day 20) of 4.0 log10. The log10 viable microorganisms ([1]; DMX alone 1740 ppm a.i., day 20) was 0.0 log10, the “DMX alone (minimal concentration producing a 4 log10 microbial kill)” value [1, 6] was 1160 ppm and the log10 viable microorganisms ([2]; 360 h, 1160 ppm) was 3 log10. The log10 viable microorganisms ([2]; DMX alone 102 ppm a.i., day 15) was 7 log10, the log10 viable microorganisms ([2]; DMX alone 153 ppm a.i., day 15) was 8 log10 and the log10 viable microorganisms ([2]; DMX alone 229 ppm a.i., day 15) was 7 log10. It also gave a log10 viable microorganisms ([2]; DMX alone 344 ppm a.i., day 15) of 7 log10, a log10 viable microorganisms ([2]; DMX alone 516 ppm a.i., day 15) of 8 log10 and a log10 viable microorganisms ([2]; DMX alone 773 ppm a.i., day 15) of 7 log10. For the same compound, the log10 viable microorganisms ([2]; DMX alone 1740 ppm a.i., day 15) was 0 log10 and the “DMX alone (minimal concentration producing a 4 log10 microbial kill)” value ([2]; day 15, ppm active, following four bacterial challenges) was 1160 ppm.
Cn1ccc(=O)s1 [MIT, 2-Methyl-3-isothiazolinone] was tested, and the “log10 viable microorganisms (score)” value ([4]; MIT alone 3 ppm) was 8.0 log10, the “log10 viable microorganisms (score)” value ([4]; MIT alone 4 ppm) was 8.0 log10 and the “log10 viable microorganisms (score)” value ([4]; MIT alone 7 ppm) was 8.0 log10. The “log10 viable microorganisms (score)” value ([4]; MIT alone 10 ppm) was 8.0 log10, the “log10 viable microorganisms (score)” value ([4]; MIT alone 15 ppm) was 8.0 log10 and the “log10 viable microorganisms (score)” value ([4]; MIT alone 22 ppm) was 8.0 log10. The “log10 viable microorganisms (score)” value ([4]; MIT alone 33 ppm) was 8.0 log10, the “log10 viable microorganisms (score)” value ([4]; MIT alone 50 ppm) was 3.0 log10 and the “MIT Alone (minimal concentration producing a 4 log10 microbial kill)” value [4] was greater than 50 ppm.
